Reference: patent EP0678100B1, “SYNTHETIC AMPHIPATHIC PEPTIDES WITH ANTIMICROBIAL ACTIVITY” (PIONEER HI-BRED INTERNATIONAL, INC., priority 1993, dated 1998)
Values after ≈ are worked out from the molar mass of the structure shown. Read-outs that look alike come from different tables or passages of the source. Residues, ends and D or L forms follow the SMILES beside them. No end group written: not given here.

Assays:
F. moniliforme = conditions: for MCIC: Minimum Complete Inhibitory Concentration, achieving a score of 3 or greater
A. flavus = conditions: for MCIC: Minimum Complete Inhibitory Concentration, achieving a score of 3 or greater
[1] = F. graminearum, minimum inhibitory concentration, achieving a score of 1 or greater
[2] = F. moniliforme, minimum inhibitory concentration, achieving a score of 1 or greater
[3] = A. flavus, minimum inhibitory concentration, achieving a score of 1 or greater

CC[C@H](C)[C@H](NC(=O)CNC(=O)[C@@H](NC(=O)[C@@H](NC(=O)[C@@H](NC(=O)CNC(=O)[C@@H]1CCCN1C(=O)CNC(=O)[C@H](C)NC(=O)[C@H](CCCCN)NC(=O)[C@@H](NC(=O)[C@H](CCCCN)NC(=O)[C@H](CCCCN)NC(=O)[C@@H]1CCCN1C(=O)[C@@H](NC(=O)[C@H](Cc1c[nH]cn1)NC(=O)[C@H](CCCCN)NC(=O)[C@@H](NC(=O)[C@H](C)NC(=O)[C@H](CCCCN)NC(=O)[C@H](CCC(=O)O)NC(=O)[C@@H](NC(=O)[C@H](CCCCN)NC(=O)[C@@H](N)CCCCN)[C@@H](C)CC)[C@@H](C)CC)[C@@H](C)CC)[C@@H](C)CC)C(C)C)[C@@H](C)O)[C@@H](C)CC)C(=O)N[C@@H](C)C(=O)N[C@@H](Cc1c[nH]cn1)C(=O)N[C@@H](C)C(=O)N[C@@H](CCCCN)C(=O)N[C@@H](CO)C(=O)N[C@@H](CCC(N)=O)C(=O)N[C@@H](CC(C)C)C(=O)N[C@@H](Cc1c[nH]c2ccccc12)C(=O)O [Peptide 1] (H-KKIEKAIKHIPKKIKAGPGVTIGIAHAKSQLW-OH)
MIC (F. graminearum; [1]): 0.017 ng/mL (≈ 0.00487 nM) | MIC (F. moniliforme; [2]): 17

CC[C@H](C)[C@H](NC(=O)CNC(=O)[C@@H](NC(=O)[C@@H](NC(=O)[C@@H](NC(=O)CNC(=O)[C@@H]1CCCN1C(=O)CNC(=O)[C@H](C)NC(=O)[C@H](CCCCN)NC(=O)[C@H](Cc1c[nH]c2ccccc12)NC(=O)[C@H](Cc1c[nH]cn1)NC(=O)[C@H](CCCNC(=N)N)NC(=O)[C@H](C)NC(=O)[C@H](CC(C)C)NC(=O)[C@H](C)NC(=O)[C@H](CCCNC(=N)N)NC(=O)[C@H](CC(C)C)NC(=O)[C@H](C)NC(=O)[C@H](CCCCN)NC(=O)[C@H](CCCCN)NC(=O)[C@H](CC(C)C)NC(=O)[C@@H](N)CCCCN)C(C)C)[C@@H](C)O)[C@@H](C)CC)C(=O)N[C@@H](C)C(=O)N[C@@H](Cc1c[nH]cn1)C(=O)N[C@@H](C)C(=O)N[C@@H](CCCCN)C(=O)N[C@@H](CO)C(=O)N[C@@H](CCC(N)=O)C(=O)N[C@@H](CC(C)C)C(=O)N[C@@H](Cc1c[nH]c2ccccc12)C(=O)O [Peptide 2] (H-KLKKALRALARHWKAGPGVTIGIAHAKSQLW-OH)
MIC (F. graminearum; [1]): 0.014 ng/mL (≈ 0.00411 nM) | MIC (F. moniliforme; [2]): 14

CC[C@H](C)[C@H](NC(=O)CNC(=O)[C@@H](NC(=O)[C@@H](NC(=O)[C@@H](NC(=O)CNC(=O)[C@@H]1CCCN1C(=O)CNC(=O)[C@H](C)NC(=O)[C@H](CC(C)C)NC(=O)[C@H](C)NC(=O)[C@H](CCCNC(=N)N)NC(=O)[C@@H](NC(=O)[C@H](CCCNC(=N)N)NC(=O)[C@@H](NC(=O)[C@H](CCCNC(=N)N)NC(=O)[C@H](CCCNC(=N)N)NC(=O)[C@@H]1CCCN1C(=O)[C@@H](NC(=O)[C@H](Cc1c[nH]cn1)NC(=O)[C@H](CCCNC(=N)N)NC(=O)[C@@H](NC(=O)[C@H](C)NC(=O)[C@H](CCCNC(=N)N)NC(=O)[C@H](Cc1ccc(O)cc1)NC(=O)[C@@H](NC(=O)[C@H](CCCNC(=N)N)NC(=O)[C@H](CCCNC(=N)N)NC(=O)[C@@H](NC(=O)[C@H](C)NC(=O)[C@H](CCCNC(=N)N)NC(=O)[C@@H](N)CCC(N)=O)C(C)C)[C@@H](C)CC)[C@@H](C)CC)[C@@H](C)CC)[C@@H](C)CC)[C@@H](C)CC)C(C)C)[C@@H](C)O)[C@@H](C)CC)C(=O)N[C@@H](C)C(=O)N[C@@H](Cc1c[nH]cn1)C(=O)N[C@@H](C)C(=O)N[C@@H](CCCCN)C(=O)N[C@@H](CO)C(=O)N[C@@H](CCC(N)=O)C(=O)N[C@@H](CC(C)C)C(=O)N[C@@H](Cc1c[nH]c2ccccc12)C(=O)O [Peptide 3] (H-QRAVRRIYRAIRHIPRRIRIRALAGPGVTIGIAHAKSQLW-OH)
MIC (F. graminearum; [1]): 0.013 ng/mL (≈ 0.00281 nM) | % Inhibition of Growth (E. coli; concentration 3.00 µg/ml): 0% | % Inhibition of Growth (E. coli; concentration 6.25 µg/ml): 0% | % Inhibition of Growth (E. coli; concentration 12.5 µg/ml): 0% | % Inhibition of Growth (E. coli; concentration 25 µg/ml): 0% | % Inhibition of Growth (E. coli; concentration 50 µg/ml): 0% | MIC (F. moniliforme): 13 | % Inhibition of Growth (E. stewartii; concentration 3.00 µg/ml): 0% | % Inhibition of Growth (E. stewartii; concentration 6.25 µg/ml): 0% | % Inhibition of Growth (E. stewartii; concentration 12.5 µg/ml): 49% | % Inhibition of Growth (E. stewartii; concentration 25 µg/ml): 80% | % Inhibition of Growth (E. stewartii; concentration 50 µg/ml): 100% | % Inhibition of Growth (P. syringae; concentration 3.00 µg/ml): 0% | % Inhibition of Growth (P. syringae; concentration 6.25 µg/ml): 11% | % Inhibition of Growth (P. syringae; concentration 12.5 µg/ml): 30% | % Inhibition of Growth (P. syringae; concentration 25 µg/ml): 48% | % Inhibition of Growth (P. syringae; concentration 50 µg/ml): 52%

CC[C@H](C)[C@H](NC(=O)CNC(=O)[C@@H](NC(=O)[C@@H](NC(=O)[C@@H](NC(=O)CNC(=O)[C@@H]1CCCN1C(=O)CNC(=O)[C@H](C)NC(=O)[C@H](CC(C)C)NC(=O)[C@H](C)NC(=O)[C@H](CCCNC(=N)N)NC(=O)[C@@H](NC(=O)[C@H](CCCCN)NC(=O)[C@@H](NC(=O)[C@H](CCCCN)NC(=O)[C@H](CCCCN)NC(=O)[C@@H]1CCCN1C(=O)[C@@H](NC(=O)[C@H](Cc1c[nH]cn1)NC(=O)[C@H](CCCCN)NC(=O)[C@@H](NC(=O)[C@H](C)NC(=O)[C@H](CCCCN)NC(=O)[C@H](CCC(=O)O)NC(=O)[C@@H](NC(=O)[C@H](CCCCN)NC(=O)[C@H](CCCCN)NC(=O)[C@@H](NC(=O)[C@H](C)NC(=O)[C@H](CCCNC(=N)N)NC(=O)[C@@H](N)CCC(N)=O)C(C)C)[C@@H](C)CC)[C@@H](C)CC)[C@@H](C)CC)[C@@H](C)CC)[C@@H](C)CC)C(C)C)[C@@H](C)O)[C@@H](C)CC)C(=O)N[C@@H](C)C(=O)N[C@@H](Cc1c[nH]cn1)C(=O)N[C@@H](C)C(=O)N[C@@H](CCCCN)C(=O)N[C@@H](CO)C(=O)N[C@@H](CCC(N)=O)C(=O)N[C@@H](CC(C)C)C(=O)N[C@@H](Cc1c[nH]c2ccccc12)C(=O)O [Peptide 4] (H-QRAVKKIEKAIKHIPKKIKIRALAGPGVTIGIAHAKSQLW-OH)
MIC (F. graminearum; [1]): 0.013 ng/mL (≈ 0.00296 nM) | MIC (F. moniliforme; [2]): 17

CC[C@H](C)[C@H](NC(=O)CNC(=O)[C@@H](NC(=O)[C@@H](NC(=O)[C@@H](NC(=O)CNC(=O)[C@@H]1CCCN1C(=O)CNC(=O)[C@H](C)NC(=O)[C@@H](NC(=O)[C@H](C)NC(=O)[C@H](CCCNC(=N)N)NC(=O)[C@H](CCC(N)=O)NC(=O)[C@H](CC(C)C)NC(=O)[C@H](C)NC(=O)[C@H](CCCNC(=N)N)NC(=O)[C@@H](NC(=O)[C@H](CCCCN)NC(=O)[C@H](CCCNC(=N)N)NC(=O)[C@H](CCCNC(=N)N)NC(=O)[C@H](CC(C)C)NC(=O)[C@H](Cc1c[nH]c2ccccc12)NC(=O)[C@H](CCCNC(=N)N)NC(=O)[C@@H](NC(=O)[C@H](CC(C)C)NC(=O)[C@H](CCCCN)NC(=O)[C@H](CCCNC(=N)N)NC(=O)[C@@H](NC(=O)[C@H](CC(C)C)NC(=O)[C@@H](N)CCCCN)[C@@H](C)CC)[C@@H](C)CC)[C@@H](C)CC)C(C)C)C(C)C)[C@@H](C)O)[C@@H](C)CC)C(=O)N[C@@H](C)C(=O)N[C@@H](Cc1c[nH]cn1)C(=O)N[C@@H](C)C(=O)N[C@@H](CCCCN)C(=O)N[C@@H](CO)C(=O)N[C@@H](CCC(N)=O)C(=O)N[C@@H](CC(C)C)C(=O)N[C@@H](Cc1c[nH]c2ccccc12)C(=O)O [Peptide 7] (H-KLIRKLIRWLRRKIRALQRAVAGPGVTIGIAHAKSQLW-OH)
MIC (A. flavus; [3]): 40 | MIC (F. graminearum): 0.01 ng/mL (≈ 0.00229 nM) | MIC (F. moniliforme; [2]): 10

CC[C@H](C)[C@H](NC(=O)[C@H](C)NC(=O)[C@H](CCCNC(=N)N)NC(=O)[C@H](Cc1ccc(O)cc1)NC(=O)[C@@H](NC(=O)[C@H](CCCNC(=N)N)NC(=O)[C@@H](N)CCCNC(=N)N)[C@@H](C)CC)C(=O)N[C@@H](CCCNC(=N)N)C(=O)N[C@@H](Cc1c[nH]cn1)C(=O)N[C@H](C(=O)N1CCC[C@H]1C(=O)N[C@@H](CCCNC(=N)N)C(=O)N[C@@H](CCCNC(=N)N)C(=O)N[C@H](C(=O)N[C@@H](CCCNC(=N)N)C(=O)NCC(=O)N[C@@H](Cc1c[nH]c2ccccc12)C(=O)N[C@@H](CC(C)C)C(=O)N[C@@H](CCCNC(=N)N)C(=O)N[C@@H](CCCNC(=N)N)C(=O)N[C@H](C(=O)NCC(=O)N[C@@H](CCCNC(=N)N)C(=O)N[C@@H](CCCNC(=N)N)C(=O)N[C@H](C(=O)N[C@@H](CCC(=O)O)C(=O)N[C@@H](CCCNC(=N)N)C(=O)N[C@H](C(=O)NCC(=O)N[C@@H](CCC(N)=O)C(=O)N[C@@H](Cc1c[nH]cn1)C(=O)O)C(C)C)[C@@H](C)CC)[C@@H](C)CC)[C@@H](C)CC)[C@@H](C)CC [Peptide 9] (H-RRIYRAIRHIPRRIRGWLRRIGRRIERVGQH-OH)
MIC (A. flavus): 15 | MIC (F. graminearum; [1]): 0.01 ng/mL (≈ 0.0025 nM) | MIC (F. moniliforme): 10

CC[C@H](C)[C@H](NC(=O)[C@H](C)NC(=O)[C@H](CCCCN)NC(=O)[C@H](CCC(=O)O)NC(=O)[C@@H](NC(=O)[C@H](CCCCN)NC(=O)[C@@H](N)CCCCN)[C@@H](C)CC)C(=O)N[C@@H](CCCCN)C(=O)N[C@@H](Cc1c[nH]cn1)C(=O)N[C@H](C(=O)N1CCC[C@H]1C(=O)N[C@@H](CCCCN)C(=O)N[C@@H](CCCCN)C(=O)N[C@H](C(=O)N[C@@H](CCCCN)C(=O)N[C@@H](CC(C)C)C(=O)N[C@@H](CCCCN)C(=O)N[C@@H](CCCCN)C(=O)N[C@@H](C)C(=O)N[C@@H](CC(C)C)C(=O)N[C@@H](CCCNC(=N)N)C(=O)N[C@@H](C)C(=O)N[C@@H](CC(C)C)C(=O)N[C@@H](C)C(=O)N[C@@H](CCCNC(=N)N)C(=O)N[C@@H](Cc1c[nH]cn1)C(=O)N[C@@H](Cc1c[nH]c2ccccc12)C(=O)N[C@@H](CCCCN)C(=O)O)[C@@H](C)CC)[C@@H](C)CC [Peptide 10] (H-KKIEKAIKHIPKKIKLKKALRALARHWK-OH)
MIC (A. flavus; [3]): 80 | MIC (F. graminearum; [1]): 0.01 ng/mL (≈ 0.00296 nM) | MIC (F. moniliforme; [2]): 7.5

Cecropin A [reference compound]
MCIC (A. flavus; A. flavus): >80 µg/mL | MIC (A. flavus; [3]): 80 | MCIC (F. graminearum): >80 µg/mL | MIC (F. graminearum): 0.06 ng/mL | MCIC (F. moniliforme; F. moniliforme): >80 µg/mL | MIC (F. moniliforme; [2]): 80

IRALQRAVRHPRAIRRIYRGWKKAIRAGPGVTIGIAHAKSQLW [Peptide 6]
MIC (A. flavus; [3]): 80 | MIC (F. graminearum; [1]): 0.01 ng/mL | MIC (F. moniliforme; [2]): 15

Mastoparan [reference compound]
MCIC (A. flavus; A. flavus): 40 µg/mL | MIC (A. flavus; [3]): 20 | MCIC (F. graminearum): 10 µg/mL | MIC (F. graminearum): 0.005 ng/mL | MCIC (F. moniliforme; F. moniliforme): 10 µg/mL | MIC (F. moniliforme; [2]): 2.5
